Reference: patent US20210071180A1, “MICRORNA 584-5P COMPOSITIONS AND METHODS FOR TREATING CANCER” (BOARD OF REGENTS, THE UNIVERSY OF TEXAS SYSTEM, priority 2018, published 2021)

Columns and labels:
[1] = system: MB cells; experiment: FACS analysis of cell cycle progression; assay type: cell-based; details: vs miR-NC or scramble-siRNA
Protocol: To gain more insight into the tumor-suppressing and VCR-sensitizing activities of miR-584-5p, it was determined how the miR-584-5p mimic affected cell cycle progression of MB cells. […] Bar graphs show DNA histograms quantified using the FlowJo software. In FIG. 9A, the p-values were determined by two-way ANOVA followed by Tukey's multiple-comparisons test. Error bars represent mean±SEM. […] In FIG. 9B, the p-values were calculated using standard Student t-tests. Error bars represent mean±SEM. […] Next, it was determined whether miR-584-5p's effect on cell cycle progression may be mediated via its target genes eIF4E3/HDAC1. […] Bar graphs show dot plots quantified using the FlowJo software. Next, it was tested whether miR-584-5p-induced cell cycle arrest led to apoptosis of MB cells. […] In FIG. 8C, the bar graphs reflect DNA histograms quantified using the FlowJo software and in FIG. 8D and FIG. 9C, the bar graphs show dot plots quantified using the FlowJo software. The p-values for panels 8A-D and FIG. 9C were determined by two-way ANOVA followed by Tukey's multiple-comparisons test. Error bars represent mean±SEM. ****, p<0.0001; ***, p<0.001; **, p<0.01; *, p<0.05.
Flow cytometry analysis of cell cycle and apoptosis. […] Cells were analyzed using either FACScantoII or LSRII cytometers, and data were quantified using FlowJo 10.2 software.

[2] = system: U20S-DR-GFP cells; experiment: ISceI-based DR-GFP reporter assay of homologous recombination; assay type: cell-based; details: cells stably expressing DR-GFP reporter, FACS
Protocol: Bar graphs next to images show average number of 53BP1 foci/cell. The p-values were determined by two-way ANOVA followed by Sidak's multiple-comparisons test. Error bars represent mean±SEM. Because miR-584-5p induces apoptosis, it was reasoned that DNA strand breaks induced by miR-584-5p and eIF4E3/HDAC1 silencing may not be properly repaired. To confirm those findings, a functional assay was performed to monitor homologous recombination (HR) because HR-dependent events repair IR-induced double-strand breaks in G2 phase. The ISceI-based DR-GFP reporter assay, which measures the frequency of double-strand break repair by HR (Gunn, A., Bennardo, N., Cheng, A. & Stark, J. M. Journal of Biological Chemistry 286, 42470-42482, (2011); Pierce, A. J., Johnson, R. D., Thompson, L. H. & Jasin, M. Genes & Development 13, 2633-2638, (1999); and Stark, J. M., Pierce, A. J., Oh, J., Pastink, A. & Jasin, M. Molecular and Cellular Biology 24, 9305-9316, (2004)), was used. […] U20S-DR-GFP cells were transfected with miR-NC or miR-584-5p or scramble-siRNA or eIF4E3/HDAC1-siRNAs followed by transfection with pCAGGS vector with ISceI/GFP. I-SceI expression leads to double-strand breaks that HR repairs by using the wild-type GFP, resulting in GFP^+ cells. […] The p-values were calculated using either Student t-tests (mimic) or one-way ANOVA followed by Dunnett's multiple-comparisons test (siRNAs). […]

[3] = system: normal neural stem cell; experiment: Normal neural stem cell growth; assay type: cell-based
[4] = system: eIF4E1; experiment: Western blot analysis of eIF4E1; assay type: cell-based; details: MB cells
Protocol: Next, it was determined whether miR-584-5p and its target genes, eIF4E3 and HDAC1, show reciprocal expression pattern in MB. […] In FIG. 16A, data represent Log 2 ratio tumor/cerebellum control. Data mined from GSE42657. In FIG. 16B, data represent Log 2 ratio tumor/cerebellum control. Data mined from GSE28245. To further confirm those results, miR-584-5p expression in MB patient-derived xenografts was examined. […] The p-values were calculated using one-way ANOVA followed by Sidak's multiple-comparisons test. Error bars represent mean±SEM. To further confirm the specificity of miR-584-5p-eIF4E3 signaling axis in MB, the expression of eIF4E1, which acts as an oncogene in several cancers (Bhat, M. et al. Nat Rev Drug Discov 14, 261-278, (2015)), was tested in miR-584-5p treated cells.

[5] = system: 3′-UTR of HDAC1; experiment: Dual luciferase 3′-UTR reporter assay (HDAC1); assay type: cell-based; details: miR-584-5p mimic in comparison with scrambled
Protocol: Dual luciferase assay. Wild-type or mutant 3′-UTR segments of the eIF4E3 and HDAC1 gene were cloned downstream of the luciferase gene in pGL3-promoter vector at the SacI and SpeI restriction sites. HEK293 cells were cotransfected with Renilla luciferase vector (pRLnull 380) and firefly luciferase vector containing pGL3-wt-eIF4E3; pGL3-mut-eIF4E3; or pGL3-wt-HDAC1, pGL3-mut-HDAC1, or pGL3 overnight and incubated in fresh complete medium for an additional 48 hours after transfection. Cells were then transfected with miRNA mimic (Invitrogen) for 24 hours. Next, cells were harvested with 1× passive lysis buffer (Promega) and luciferase activity was read using GLOMAX 20/20 luminometer (Promega).
Data are z-transformed. The cutoff criteria for each gene are fold change >2, sample intensity >10, and p-value <0.05. […] To validate the gene expression analysis and target prediction results, it was determined whether miR-584-5p reduced HDAC1/eIF4E3 expression by binding to their 3′-untranslated regions (3′-UTRs). […] Also shown are the portion of the miR-584-5p sequence (SEQ ID NO: 15; UAUGGUU) that binds to the wild-type 3′UTR and seed sequence mutant (SEQ ID NO: 16; […], top panel; and SEQ ID NO: 17; […]; bottom panel). Also shown is miR-584-5p seed sequence mutated sequences. […] The p-values were calculated using standard Student t-tests. […] The p-values were calculated using standard Student t-tests.

[6] = system: DAOY cells stably expressing green fluorescent protein (GFP)-luciferase; experiment: Orthotopic intracranial tumor xenograft, bioluminescence imaging and survival
Protocol: For in vivo studies, orthotopic intracranial transplantation of the scrambled and miR-584-5p-transfected DAOY cells stably expressing green fluorescent protein (GFP)-luciferase was performed. […] The p-values were determined by the sum-of-squares F test. Error bars represent mean±SEM. […] The p-value was determined using the log-rank (Mantel-Cox) test. Error bars represent SE. ****, p<0.0001; ***, p<0.001.
Animals and intracranial xenografts. Athymic nude mice (nu/nu) were obtained from Harlan, USA. Three- to 5-week-old athymic nude mice (nu/nu) were anesthetized using isoflurane by inhalation. Using a Hamilton syringe, 1 million cells were stereotactically implanted into the right corpus striatum at a depth of 3.5 mm at a point 2.5 mm lateral to the midline and 1.5 mm anterior to the bregma. After the surgery, the animal recovered on a heating pad in a normal mouse cage to maintain its body temperature at 37°-37.2° C. An ocular lubricating ointment (AKORN) was administered until spontaneous blinking resumed. Starting from week 2, control group animals received dimethyl sulfoxide, whereas VCR group animals received 1 mg of VCR (Sigma-Aldrich) per kg of body weight intraperitoneally once per week for 6 weeks. The Xenogen Small-Animal Imaging System was used for subcellular imaging in live mice once per week. Animals were killed, and brains were fixed and analyzed.

## miR-584-5p: microRNA mimic; nucleotide sequence UUAUGGUUUGCCUGGGACUGAG (SEQ ID NO: 1); purchased from Thermofisher (chemistry not given here)
[1]
  cell cycle progression: G2/M cell cycle arrest
[2]
  GFP-positive cells (homologous recombination events): significantly fewer GFP-positive cells
[3]
  normal neural stem cell growth: without affecting normal neural stem cell growth
[4]
  eIF4E1 levels: did not show any change
[5]
  luciferase activity, HDAC1 3′-UTR with mutated miR-584-5p binding sites: no change in luciferase activity
  luciferase activity, wild-type HDAC1 3′-UTR construct: significantly reduced
[6]; transfected DAOY cells, in comparison with scrambled-transfectant tumor
  MB tumor growth: dramatically reduced MB growth
[6]; vs scrambled-transfectant group, Kaplan-Meier
  survival of mice: lived significantly longer
